Test results as given in ChEMBL document CHEMBL5465560, “Selectivity Literature for EUbOPEN Chemogenomic Library” (2024).

Tests used:
[1] = biological target: Ribosomal protein S6 kinase alpha-3 (Homo sapiens, UniProt P51812); experiment: Selectivity interaction (Ambit KINOMEscan and KiNATiv profiling in Jurkat cells) EUB0000090b RPS6KA3; type: cell-based; conditions: at 1 µM
[2] = biological target: Protein polybromo-1 (Homo sapiens) (UniProt Q86U86); experiment: Selectivity interaction (Bromodomain panel (DSF asssay)) EUB0000270b PBRM1
[3] = biological target: T1, Interleukin-1 receptor-associated kinase 4 (Homo sapiens) (UniProt Q9NWZ3); experiment: Selectivity interaction (KinomeScan (DiscoverX)) EUB0000695a IRAK4; conditions: at 100 nM
T1 sequence (whole entry): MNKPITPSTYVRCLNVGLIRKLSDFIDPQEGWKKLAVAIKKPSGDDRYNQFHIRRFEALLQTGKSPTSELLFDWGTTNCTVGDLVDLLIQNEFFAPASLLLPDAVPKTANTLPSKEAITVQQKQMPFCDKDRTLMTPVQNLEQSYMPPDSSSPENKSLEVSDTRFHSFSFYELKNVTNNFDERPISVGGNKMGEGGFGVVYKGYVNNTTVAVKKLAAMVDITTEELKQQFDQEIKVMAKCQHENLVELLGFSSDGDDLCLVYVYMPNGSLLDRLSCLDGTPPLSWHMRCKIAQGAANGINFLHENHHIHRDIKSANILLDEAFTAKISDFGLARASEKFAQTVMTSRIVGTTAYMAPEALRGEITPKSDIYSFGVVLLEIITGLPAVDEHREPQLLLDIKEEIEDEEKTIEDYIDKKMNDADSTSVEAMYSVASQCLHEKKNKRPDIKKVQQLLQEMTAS

[4] = biological target: T2, Testis-specific serine/threonine-protein kinase 1 (Homo sapiens) (UniProt Q9BXA7); experiment: Selectivity interaction (KinomeScan (DiscoverX)) EUB0001079a TSSK1B; conditions: at 1 µM
T2 sequence (whole entry): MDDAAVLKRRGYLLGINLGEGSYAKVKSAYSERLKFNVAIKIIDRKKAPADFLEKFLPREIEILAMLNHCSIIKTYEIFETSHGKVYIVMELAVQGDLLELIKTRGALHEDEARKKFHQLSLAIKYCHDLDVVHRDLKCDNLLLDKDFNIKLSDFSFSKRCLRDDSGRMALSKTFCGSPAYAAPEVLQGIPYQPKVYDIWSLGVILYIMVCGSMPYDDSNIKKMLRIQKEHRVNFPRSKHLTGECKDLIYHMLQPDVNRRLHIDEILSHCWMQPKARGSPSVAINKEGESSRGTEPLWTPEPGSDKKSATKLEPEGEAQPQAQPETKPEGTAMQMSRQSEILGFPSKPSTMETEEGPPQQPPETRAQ

[5] = biological target: T3, Phosphatidylinositol 5-phosphate 4-kinase type-2 gamma (Homo sapiens) (UniProt Q8TBX8); experiment: Selectivity interaction (KinomeScan (DiscoverX)) EUB0000092b PIP4K2C; conditions: at 10 µM
T3 sequence (whole entry): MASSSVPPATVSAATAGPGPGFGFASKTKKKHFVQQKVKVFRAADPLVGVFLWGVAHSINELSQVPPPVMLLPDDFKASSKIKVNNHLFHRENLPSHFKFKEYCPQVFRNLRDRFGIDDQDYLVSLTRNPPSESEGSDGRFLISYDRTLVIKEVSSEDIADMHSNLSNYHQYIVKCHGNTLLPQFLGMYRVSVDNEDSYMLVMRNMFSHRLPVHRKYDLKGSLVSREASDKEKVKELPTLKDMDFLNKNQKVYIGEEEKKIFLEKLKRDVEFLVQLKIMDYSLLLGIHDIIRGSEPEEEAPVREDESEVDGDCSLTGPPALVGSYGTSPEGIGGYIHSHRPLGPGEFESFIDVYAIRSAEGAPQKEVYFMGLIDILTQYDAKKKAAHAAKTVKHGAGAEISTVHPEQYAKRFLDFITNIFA

[6] = biological target: Ribosomal protein S6 kinase alpha-1 (Homo sapiens, UniProt Q15418); experiment: Selectivity interaction (KinomeScan (DiscoverX)) EUB0000092b RPS6KA1; conditions: at 10 µM
[7] = biological target: Serine/threonine-protein kinase SIK1 (Homo sapiens) (UniProt P57059); experiment: Selectivity interaction (KinomeScan (DiscoverX)) EUB0000092b SIK1; conditions: at 10 µM
[8] = biological target: T4, Membrane-associated tyrosine- and threonine-specific cdc2-inhibitory kinase (Homo sapiens) (UniProt Q99640); experiment: Selectivity interaction (KinomeScan (DiscoverX)) EUB0000045b PKMYT1
T4 sequence (whole entry): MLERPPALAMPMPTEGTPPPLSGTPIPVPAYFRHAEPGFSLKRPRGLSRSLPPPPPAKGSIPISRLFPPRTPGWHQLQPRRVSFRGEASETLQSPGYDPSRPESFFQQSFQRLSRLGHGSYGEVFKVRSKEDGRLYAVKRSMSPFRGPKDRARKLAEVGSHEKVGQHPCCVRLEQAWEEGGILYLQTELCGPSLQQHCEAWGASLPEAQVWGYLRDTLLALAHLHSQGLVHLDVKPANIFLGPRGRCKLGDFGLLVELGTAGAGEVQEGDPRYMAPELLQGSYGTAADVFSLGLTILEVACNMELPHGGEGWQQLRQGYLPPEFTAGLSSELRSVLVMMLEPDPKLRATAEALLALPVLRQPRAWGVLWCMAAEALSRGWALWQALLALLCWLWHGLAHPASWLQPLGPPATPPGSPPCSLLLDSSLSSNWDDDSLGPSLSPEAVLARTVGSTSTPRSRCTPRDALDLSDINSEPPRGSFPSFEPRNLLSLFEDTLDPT

[9] = biological target: Serine/threonine-protein kinase 24 (Homo sapiens) (UniProt Q9Y6E0); experiment: Selectivity interaction (Kinase panel (KiNativ target engagement assay in Jurkat cells)) EUB0001635a STK24; type: cell-based; conditions: Selectivity number of off-targets 0.0, Selectivity number of targets 233.0, Source Knowledge https://www.sciencedirect.com/science/article/pii/S2451945619300674?via%3Dihub, at 1 µM
Sequence of Serine/threonine-protein kinase 24 (Homo sapiens) (Q9Y6E0 whole entry, looked up): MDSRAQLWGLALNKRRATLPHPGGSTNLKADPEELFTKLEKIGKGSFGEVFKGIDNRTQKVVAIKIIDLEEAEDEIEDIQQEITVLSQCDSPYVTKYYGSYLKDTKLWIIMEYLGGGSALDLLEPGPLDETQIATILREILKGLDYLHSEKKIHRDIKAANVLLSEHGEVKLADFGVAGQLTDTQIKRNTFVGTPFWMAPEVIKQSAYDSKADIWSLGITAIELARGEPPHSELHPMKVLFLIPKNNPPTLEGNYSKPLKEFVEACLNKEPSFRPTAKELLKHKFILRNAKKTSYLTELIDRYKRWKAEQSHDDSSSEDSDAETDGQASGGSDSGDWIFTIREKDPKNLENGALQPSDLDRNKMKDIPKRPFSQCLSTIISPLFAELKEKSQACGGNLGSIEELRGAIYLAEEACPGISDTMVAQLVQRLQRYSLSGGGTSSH

Sequence of Ribosomal protein S6 kinase alpha-3 (P51812 whole entry): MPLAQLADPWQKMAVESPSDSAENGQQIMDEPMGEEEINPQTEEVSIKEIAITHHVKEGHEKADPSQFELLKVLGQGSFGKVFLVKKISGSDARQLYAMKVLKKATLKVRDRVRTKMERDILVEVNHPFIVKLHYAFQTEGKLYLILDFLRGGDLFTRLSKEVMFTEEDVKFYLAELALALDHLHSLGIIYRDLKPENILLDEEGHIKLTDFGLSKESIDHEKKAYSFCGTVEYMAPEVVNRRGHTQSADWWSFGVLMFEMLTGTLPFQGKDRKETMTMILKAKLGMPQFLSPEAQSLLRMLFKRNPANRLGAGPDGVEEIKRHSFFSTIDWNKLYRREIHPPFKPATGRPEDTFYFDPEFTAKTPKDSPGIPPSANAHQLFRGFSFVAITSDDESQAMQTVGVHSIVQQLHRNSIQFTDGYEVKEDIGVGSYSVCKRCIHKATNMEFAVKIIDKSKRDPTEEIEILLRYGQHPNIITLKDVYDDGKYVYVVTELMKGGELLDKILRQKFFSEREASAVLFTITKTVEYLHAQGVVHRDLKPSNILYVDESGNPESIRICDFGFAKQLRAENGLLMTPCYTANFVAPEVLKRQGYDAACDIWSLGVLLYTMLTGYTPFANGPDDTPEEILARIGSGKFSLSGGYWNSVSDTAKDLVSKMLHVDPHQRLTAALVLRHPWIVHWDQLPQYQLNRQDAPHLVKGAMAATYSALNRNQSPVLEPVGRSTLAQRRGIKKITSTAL
Sequence of Ribosomal protein S6 kinase alpha-1 (Q15418 whole entry): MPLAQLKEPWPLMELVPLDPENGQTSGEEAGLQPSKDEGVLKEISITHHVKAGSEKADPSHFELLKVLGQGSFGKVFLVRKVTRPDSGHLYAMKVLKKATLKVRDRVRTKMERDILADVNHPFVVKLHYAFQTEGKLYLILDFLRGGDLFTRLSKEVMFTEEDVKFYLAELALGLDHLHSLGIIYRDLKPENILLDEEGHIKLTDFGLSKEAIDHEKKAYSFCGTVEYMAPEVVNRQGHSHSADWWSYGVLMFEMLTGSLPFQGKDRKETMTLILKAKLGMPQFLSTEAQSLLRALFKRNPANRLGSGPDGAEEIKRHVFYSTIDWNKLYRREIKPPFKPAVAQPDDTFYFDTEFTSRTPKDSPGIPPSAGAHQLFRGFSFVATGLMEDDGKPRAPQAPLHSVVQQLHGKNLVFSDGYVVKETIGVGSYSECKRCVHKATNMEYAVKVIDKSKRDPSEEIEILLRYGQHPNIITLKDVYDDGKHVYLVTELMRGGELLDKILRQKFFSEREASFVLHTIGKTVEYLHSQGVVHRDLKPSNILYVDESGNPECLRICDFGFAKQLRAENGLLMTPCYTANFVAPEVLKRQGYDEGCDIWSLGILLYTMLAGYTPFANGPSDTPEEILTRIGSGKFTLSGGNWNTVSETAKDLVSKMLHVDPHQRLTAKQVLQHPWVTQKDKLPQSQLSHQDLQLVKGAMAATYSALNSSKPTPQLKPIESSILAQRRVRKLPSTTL
Sequence of Serine/threonine-protein kinase SIK1 (Homo sapiens) (P57059 whole entry): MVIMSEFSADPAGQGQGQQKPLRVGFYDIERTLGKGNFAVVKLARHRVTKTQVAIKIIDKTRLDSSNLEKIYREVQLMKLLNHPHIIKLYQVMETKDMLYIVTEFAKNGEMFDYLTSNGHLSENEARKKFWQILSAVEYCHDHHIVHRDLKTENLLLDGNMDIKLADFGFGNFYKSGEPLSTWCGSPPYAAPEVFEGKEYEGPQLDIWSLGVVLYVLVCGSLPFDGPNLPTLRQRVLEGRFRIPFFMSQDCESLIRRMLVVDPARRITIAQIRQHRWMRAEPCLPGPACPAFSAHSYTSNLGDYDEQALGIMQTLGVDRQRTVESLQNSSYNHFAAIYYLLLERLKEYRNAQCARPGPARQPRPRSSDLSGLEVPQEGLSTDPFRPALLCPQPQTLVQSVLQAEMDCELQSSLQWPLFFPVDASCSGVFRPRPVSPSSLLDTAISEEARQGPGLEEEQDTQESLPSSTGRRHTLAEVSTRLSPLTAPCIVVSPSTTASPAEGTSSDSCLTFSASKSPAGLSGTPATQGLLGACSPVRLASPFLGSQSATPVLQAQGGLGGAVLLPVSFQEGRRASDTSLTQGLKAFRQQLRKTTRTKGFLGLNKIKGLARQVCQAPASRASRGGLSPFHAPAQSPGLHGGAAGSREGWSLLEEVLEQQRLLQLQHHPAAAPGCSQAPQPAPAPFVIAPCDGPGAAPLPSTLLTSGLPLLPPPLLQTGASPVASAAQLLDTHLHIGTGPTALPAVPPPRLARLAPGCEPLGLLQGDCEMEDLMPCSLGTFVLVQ
Sequence of Protein polybromo-1 (Homo sapiens) (Q86U86 whole entry): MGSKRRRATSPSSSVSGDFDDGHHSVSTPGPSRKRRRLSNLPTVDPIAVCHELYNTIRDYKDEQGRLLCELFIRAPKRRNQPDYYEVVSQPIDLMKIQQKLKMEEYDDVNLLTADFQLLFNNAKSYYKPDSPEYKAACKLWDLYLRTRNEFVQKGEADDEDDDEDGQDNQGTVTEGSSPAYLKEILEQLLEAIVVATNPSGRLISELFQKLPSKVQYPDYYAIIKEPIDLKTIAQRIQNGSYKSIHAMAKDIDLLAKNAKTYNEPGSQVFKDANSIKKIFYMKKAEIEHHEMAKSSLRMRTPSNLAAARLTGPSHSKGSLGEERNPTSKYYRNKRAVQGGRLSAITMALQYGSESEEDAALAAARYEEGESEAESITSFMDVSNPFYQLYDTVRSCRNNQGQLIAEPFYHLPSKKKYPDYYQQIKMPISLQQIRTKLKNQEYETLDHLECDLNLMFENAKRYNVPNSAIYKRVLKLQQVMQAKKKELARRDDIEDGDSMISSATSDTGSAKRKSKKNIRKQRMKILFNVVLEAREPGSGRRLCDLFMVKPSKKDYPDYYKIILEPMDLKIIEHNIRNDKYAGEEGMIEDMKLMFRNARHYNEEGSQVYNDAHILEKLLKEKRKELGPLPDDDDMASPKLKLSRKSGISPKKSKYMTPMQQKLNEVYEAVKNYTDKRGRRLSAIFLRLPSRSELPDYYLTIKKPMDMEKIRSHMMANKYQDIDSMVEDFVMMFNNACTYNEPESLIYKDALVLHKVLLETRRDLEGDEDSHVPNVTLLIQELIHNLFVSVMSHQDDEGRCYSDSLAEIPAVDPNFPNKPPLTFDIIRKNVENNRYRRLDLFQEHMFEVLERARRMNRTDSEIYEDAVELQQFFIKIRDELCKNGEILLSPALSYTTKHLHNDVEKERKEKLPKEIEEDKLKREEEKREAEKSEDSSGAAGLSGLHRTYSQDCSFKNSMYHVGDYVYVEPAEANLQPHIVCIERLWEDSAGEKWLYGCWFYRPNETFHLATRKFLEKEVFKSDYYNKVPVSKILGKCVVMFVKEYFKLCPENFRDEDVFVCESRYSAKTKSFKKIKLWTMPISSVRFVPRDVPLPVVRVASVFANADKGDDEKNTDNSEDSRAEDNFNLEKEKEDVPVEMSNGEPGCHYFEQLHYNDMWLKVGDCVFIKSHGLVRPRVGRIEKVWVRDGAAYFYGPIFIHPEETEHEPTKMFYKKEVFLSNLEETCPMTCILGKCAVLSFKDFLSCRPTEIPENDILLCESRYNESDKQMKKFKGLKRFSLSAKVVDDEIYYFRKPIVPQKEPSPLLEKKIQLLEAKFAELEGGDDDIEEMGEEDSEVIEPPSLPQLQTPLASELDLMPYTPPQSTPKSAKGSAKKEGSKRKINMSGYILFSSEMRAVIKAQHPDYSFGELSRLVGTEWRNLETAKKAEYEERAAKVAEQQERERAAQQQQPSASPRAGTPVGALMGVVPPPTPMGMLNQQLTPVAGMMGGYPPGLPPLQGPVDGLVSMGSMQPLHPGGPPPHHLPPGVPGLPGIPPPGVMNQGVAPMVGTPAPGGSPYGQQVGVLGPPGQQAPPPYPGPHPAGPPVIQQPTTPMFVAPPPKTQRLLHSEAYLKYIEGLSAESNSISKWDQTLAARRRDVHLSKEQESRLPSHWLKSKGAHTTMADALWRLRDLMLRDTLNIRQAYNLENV

**Q.** How did the % of control [1] turn out when `CN(C)C/C=C/C(=O)Nc1ccc(C(=O)N2CCCC(Nc3ncc(Cl)c(-c4c[nH]c5ccccc45)n3)C2)cc1` (stereo not given) was run?
**A.** 100%

**Q.** How did the dTM [2] turn out when `Cc1cc(CN)cc(C)c1-c1ncn(C)c1-c1cncn1C` was run?
**A.** -1.91 K

**Q.** Which % of control [3] does the source give for `Cc1cc(F)c(C(=O)Nc2cccc(-c3nncn3C(C)C)n2)cc1-n1cnc(C2CC2)c1` here?
**A.** 85%

**Q.** Which % of control [4] does the source give for `Nc1cnc(N2CCc3cc(S(=O)(=O)Nc4c(F)cc(Cl)cc4F)cc(N4CCCC4=O)c32)nc1` [TP-020n] here?
**A.** 100%

**Q.** `CCC(=O)N1CCN(c2ccc(-n3c(=O)ccc4cnc5ccc(-c6cnc7ccccc7c6)cc5c43)cc2C(F)(F)F)CC1` was tested. Which % of control [5] did it give?
**A.** 58%

**Q.** And the % of control [6]?
**A.** 100%

**Q.** What about the % of control [7] of the same compound?
**A.** 80%

**Q.** Which % of control ([8]; at 1 µM) does the source give for `C=CC(=O)Nc1cc(-n2c(=O)ccc3cnc4ccc(-c5ccc(NS(C)(=O)=O)cc5)cc4c32)ccc1C` here?
**A.** 77%

**Q.** What about the % of control ([8]; at 10 µM) of the same compound?
**A.** 100%

**Q.** `C=CC(=O)Nc1ccc(C(=O)Nc2[nH]nc3c2CN(C(=O)N[C@H](CN(C)C)c2ccccc2)C3(C)C)cc1` was tested. Which % of engagement [9] did it give?
**A.** 24%
